# Assay results published in article PMC10480161, “Identification of potent and selective N-myristoyltransferase inhibitors of Plasmodium vivax liver stage hypnozoites and schizonts” (Nature Communications, 2023).
# Several values for one entry are separate records, joined by “and”; a condition that tells them apart may be missing. Equal values may be shown once. Read-outs that look alike come from different tables or passages of the source.
# Tests used:
# P. vivax schizonts = test: P. vivax liver stage assay, schizonts; assay type: cell-based, Plasmodium vivax; conditions: for Number of liverstage Schizonts per well: 20 µM, 8 dpi; for IC50: primary human hepatocytes, treatment day 5 to 8 post-infection, isolates 2 and 3
# In short: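 Compound exposure ran days 5–8 post-infection with daily refeeding, dose-response up to 20 µM, MMV390048 at 20 µM as positive control. Host cells were single-lot primary human hepatocytes infected with freshly dissected P. vivax sporozoites; fixed cultures stained with anti-PvUIS4 and DAPI, schizonts quantified by confocal microscopy.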
# P. vivax hypnozoites = test: P. vivax liver stage assay, hypnozoites; assay type: cell-based, Plasmodium vivax; conditions: for Hypnozoites per well: Isolate 2, replicate wells (Figure 6d); for Number of liverstage hypnozoites per well: 20 µM, 8 dpi; for IC50: primary human hepatocytes, treatment day 5 to 8 post-infection, isolate 2
# Experimental: Finally, we evaluated the NMT-binding compounds against non-developing P. vivax hypnozoites. […] (Fig. 6A). […] We, therefore, evaluated the impact of all tested compounds on P. vivax hypnozoites using these two isolates.
# (§1) Plasmodium vivax liver stage assays were performed as described previously. Cryopreserved primary human hepatocytes (Cat No. F00995-P) and hepatocyte culture medium (HCM) (InVitroGroTM CP Medium) were obtained from Bioreclamation IVT, Inc., (Baltimore, MD, USA). Briefly, we seeded 384-well plates with primary hepatocytes from a single donor lot at a density of 25,000 cells per well. We then infected the hepatocytes with 14,000 freshly hand-dissected sporozoites per well. Cells were exposed to the compounds at indicated concentrations from day 5 post-infection. We used Pi4K inhibitor MMV390048, at 20 µM, as a positive control to eliminate P. vivax liver schizonts. We then proceeded to feed cultures every day, replacing the compounds until day 8 post-infection. Cells were fixed with 4% PFA, permeabilized with 1% Triton X-100, blocked with 2% BSA, and stained with DAPI and PvUIS4 antibodies to detect schizonts and hypnozoites forms by confocal microscopy. For antibody dilutions, PvUIS4 (kind gift from Dr. Noah Sather, Seattle Children’s Research Institute) was diluted 1:250 and the secondary antibody was anti-mouse AlexaFluor-594 (Cat # A-11005; RRID: AB_2534073) diluted 1:1000. DAPI was diluted 1:2000. The images were processed, analyzed and outlier cells were removed using IMARIS (Bitplane Inc.) image analysis software.
# [1] = tested on: primary human hepatocytes; test: Nuclear counts (DAPI) in P. vivax-infected primary hepatocytes as measure of toxicity; assay type: cell-based; conditions: two technical replicates
# Experimental: Accordingly, we applied dose–response curves of all the tested NMTs on parasite isolates 2 and 3 over concentrations up to 20 µM (Fig. 5c, d, Source Data file). […] Nuclei were counted in each well using DAPI staining as a measure of toxicity (Supplementary Fig. 86, Supplementary Source data). We used the phosphatidylinositol 4-kinase inhibitor (PI4Ki), MMV390048, as a positive control for eliminating schizonts[37],[38].
# as §1, with “For antibody dilutions, PvUIS4 (kind gift from Dr. Noah Sather, Seattle Children’s Research Institute) was diluted 1:250 and the secondary antibody was anti-mouse AlexaFluor-594 (Cat # A-11005; RRID: AB_2534073) diluted 1:1000.” left out
# Supplementary Fig. 86. […] Nuclear […]
# counts, normalized to DMSO controls, for NMT inhibitors across a dose response. Counts were ob-tained using DAPI staining from the P. vivax-infected wells quantified in Fig. 5d. Error bars represent the standard deviation of two technical replicates.
# (1 picture or pasted object on this page, not shown here)
# PvNMT = PvNMT (Plasmodium vivax, UniProt A5K1A2); test: NMT activity assay (CPM detection of free CoA), PvNMT; conditions: for SI: enzyme selectivity, HsNMT IC50/PvNMT IC50
# HsNMT1 = target: T1, HsNMT1 (Homo sapiens, UniProt P30419); test: NMT activity assay (CPM detection of free CoA), HsNMT
# T1 sequence (P30419 1-496): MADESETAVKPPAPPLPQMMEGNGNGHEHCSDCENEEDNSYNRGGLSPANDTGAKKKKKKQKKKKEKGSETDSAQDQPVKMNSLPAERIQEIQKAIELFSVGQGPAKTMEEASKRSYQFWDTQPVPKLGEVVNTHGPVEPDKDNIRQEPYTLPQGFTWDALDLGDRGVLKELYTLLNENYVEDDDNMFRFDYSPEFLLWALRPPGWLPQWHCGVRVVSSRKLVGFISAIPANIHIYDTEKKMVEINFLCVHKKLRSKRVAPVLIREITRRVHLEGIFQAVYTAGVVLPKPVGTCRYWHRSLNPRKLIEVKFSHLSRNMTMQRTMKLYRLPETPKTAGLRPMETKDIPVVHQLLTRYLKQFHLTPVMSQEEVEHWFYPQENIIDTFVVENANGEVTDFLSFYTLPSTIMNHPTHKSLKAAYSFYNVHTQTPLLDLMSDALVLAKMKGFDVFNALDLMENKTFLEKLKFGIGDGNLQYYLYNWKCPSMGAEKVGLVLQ
# [2] = isolate 1, technical replicates (Fig. 5b)
# [3] = isolate 2, technical replicates (Fig. 5b)
# [4] = isolate 3, technical replicates (Fig. 5b)
# [5] = Plasmodium vivax, Hepatocyte, 120 h
# [6] = isolate 1, technical replicates (Fig. 6C)
# [7] = isolate 2, technical replicates (Fig. 6C)
# [8] = isolate 3, technical replicates (Fig. 6C)
# [9] = PvNMT IC50, mean of two or more determinations
# Sequence of PvNMT (A5K1A2 entry or part of it): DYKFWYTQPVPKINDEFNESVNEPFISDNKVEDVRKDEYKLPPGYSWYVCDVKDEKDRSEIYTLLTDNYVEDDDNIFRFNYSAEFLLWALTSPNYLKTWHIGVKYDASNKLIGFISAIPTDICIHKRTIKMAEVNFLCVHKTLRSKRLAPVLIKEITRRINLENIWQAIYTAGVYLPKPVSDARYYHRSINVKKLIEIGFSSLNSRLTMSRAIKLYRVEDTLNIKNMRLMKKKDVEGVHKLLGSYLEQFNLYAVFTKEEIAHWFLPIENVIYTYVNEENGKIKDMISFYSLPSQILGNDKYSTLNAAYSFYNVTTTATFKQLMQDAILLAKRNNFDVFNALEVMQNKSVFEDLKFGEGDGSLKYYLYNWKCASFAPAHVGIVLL
SMILES,Number of liverstage Schizonts per well (P. vivax schizonts; [2]),Number of liverstage Schizonts per well (P. vivax schizonts; [3]),Number of liverstage Schizonts per well (P. vivax schizonts; [4]),"Schizonts per well (P. vivax schizonts; Isolate 2, 1.25 uM)","Schizonts per well (P. vivax schizonts; Isolate 2, 2.5 uM)","Schizonts per well (P. vivax schizonts; Isolate 2, 5 uM)","Schizonts per well (P. vivax schizonts; Isolate 3, 1.25 uM)","Schizonts per well (P. vivax schizonts; Isolate 3, 2.5 uM)","Schizonts per well (P. vivax schizonts; Isolate 3, 5 uM)","Schizonts per well (P. vivax schizonts; Isolate 3, 10 uM)","schizonts (fold change to DMSO) mean diff (P. vivax schizonts; isolate 1, 20 µM)","schizonts (fold change to DMSO) mean diff (P. vivax schizonts; isolate 2, 20 µM)","schizonts (fold change to DMSO) mean diff (P. vivax schizonts; isolate 3, 20 µM)",Hypnozoites per well (P. vivax hypnozoites; 1.25 uM),Hypnozoites per well (P. vivax hypnozoites; 2.5 uM),Hypnozoites per well (P. vivax hypnozoites; 5 uM),Hypnozoites per well (P. vivax hypnozoites; 10 uM),Number of liverstage hypnozoites per well (P. vivax hypnozoites; [6]),Number of liverstage hypnozoites per well (P. vivax hypnozoites; [7]),Number of liverstage hypnozoites per well (P. vivax hypnozoites; [8]) [per well],other results
c1cncc(CCOc2ccccc2-c2ccnc(N3CCNCC3)c2)c1 [Compound 12j],0 per well (2×) and 1 per well,2 per well and 0 per well and 1 per well,4 per well and 3 per well,15 per well and 18 per well and 14 per well,13 per well and 11 per well,11 per well and 12 per well and 13 per well,11 per well and 19 per well,12 per well and 16 per well,8 per well and 11 per well,6 per well and 9 per well,0.983,0.9434,0.7614,9 and 6 and 12,13 and 12 and 8,19 and 3 and 13,13 and 10,0 per well (2×) and 3 per well,0 per well (2×) and 3 per well,0,"Schizonts per well (P. vivax schizonts; Isolate 3, 20 uM (Fig. 5c-d)): 4 per well and 3 per well; IC50 (P. vivax schizonts; [5]): 4900 to 6000 nM; Hypnozoites per well (P. vivax hypnozoites; 20 uM): 0 (2×) and 3; IC50 (P. vivax hypnozoites; [5]): 12000 nM; hypnozoites (fold change to DMSO) mean diff (P. vivax hypnozoites; isolate 1, 20 µM): 0.985; hypnozoites (fold change to DMSO) mean diff (P. vivax hypnozoites; isolate 2, 20 µM): 0.897; Nucleus counts per well ([1]; 1 uM): 16280 per well and 14580 per well; Nucleus counts per well ([1]; 2.5uM): 10950 per well and 12190 per well; Nucleus counts per well ([1]; 5 uM): 11170 per well and 12350 per well; Nucleus counts per well ([1]; 10uM): 12430 per well and 11110 per well; Nucleus counts per well ([1]; 20uM, P. vivax-infected wells): 10860 per well and 12840 per well; IC50 (PvNMT; [9]): 124 nM; SI (PvNMT): 220.6; IC50 (HsNMT1): 27400 nM"
Fc1ccc(-c2ccnc(N3CCNCC3)c2)c(OCCc2cccnc2)c1 [Compound 12l],0 per well (2×) and 1 per well,4 per well and 7 per well and 1 per well,2 per well and 7 per well,11 per well and 13 per well and 18 per well,11 per well and 12 per well,6 per well and 8 per well and 9 per well,12 per well and 19 per well,8 per well and 16 per well,7 per well and 13 per well,5 per well and 9 per well,0.983,0.7736,0.6932,5 and 8 and 2,6 and 4 and 1,5 and 7 and 0,1 and 14 and 0,0 per well (2×) and 5 per well,0 per well (2×) and 5 per well,0,"IC50 (P. vivax schizonts; [5]): 2900 to 4700 nM; Hypnozoites per well (P. vivax hypnozoites; 20 uM): 0 (2×) and 5; IC50 (P. vivax hypnozoites; [5]): 2100 nM; hypnozoites (fold change to DMSO) mean diff (P. vivax hypnozoites; isolate 1, 20 µM): 1.000; hypnozoites (fold change to DMSO) mean diff (P. vivax hypnozoites; isolate 2, 20 µM): 0.828; Nucleus counts per well ([1]; 1 uM): 15910 per well and 14650 per well; Nucleus counts per well ([1]; 2.5uM): 13010 per well and 13310 per well; Nucleus counts per well ([1]; 5 uM): 13030 per well and 13070 per well; Nucleus counts per well ([1]; 10uM): 13130 per well and 13070 per well; Nucleus counts per well ([1]; 20uM, P. vivax-infected wells): 11440 per well and 13460 per well; IC50 (PvNMT; [9]): 23.4 nM; SI (PvNMT): 73; IC50 (HsNMT1): 1710 nM"
Cc1n[nH]c(C)c1CCOc1cc(F)ccc1-c1ccnc(N2CCNCC2)c1 [Compound 12q],0 per well (2×) and 1 per well,3 per well and 4 per well and 1 per well,3 per well and 7 per well,11 per well and 15 per well and 12 per well,7 per well and 9 per well and 13 per well,9 per well and 11 per well and 12 per well,12 per well and 13 per well,6 per well and 11 per well,7 per well and 6 per well,5 per well and 8 per well,0.983,0.8491,0.6591,11 and 8 and 10,8 and 5 and 7,5 and 6 and 3,5 and 0 and 3,0 per well (2×) and 1 per well,1 per well (2×) and 0 per well,0,"Schizonts per well (P. vivax schizonts; Isolate 2, 10 uM): 7 per well and 5 per well and 6 per well; IC50 (P. vivax schizonts): 2200 to 3500 nM; Hypnozoites per well (P. vivax hypnozoites; 20 uM): 1 (2×) and 0; hypnozoites (fold change to DMSO) mean diff (P. vivax hypnozoites; isolate 1, 20 µM): 0.939; hypnozoites (fold change to DMSO) mean diff (P. vivax hypnozoites; isolate 2, 20 µM): 0.931; IC50 (P. vivax hypnozoites): 4400 nM; Nucleus counts per well ([1]; 1 uM): 14830 per well and 14410 per well; Nucleus counts per well ([1]; 2.5uM): 12630 per well and 14350 per well; Nucleus counts per well ([1]; 5 uM): 13780 per well and 14410 per well; Nucleus counts per well ([1]; 10uM): 15080 per well and 12510 per well; Nucleus counts per well ([1]; 20uM, P. vivax-infected wells): 12010 per well and 14890 per well; SI (PvNMT): 22; IC50 (PvNMT; read-out: PvNMT IC50, mean of two or more determinations): 73 nM; IC50 (HsNMT1; read-out: HsNMT IC50, mean of two or more determinations): 1630 nM"
